From ChEMBL document CHEMBL1201862, “PubChem BioAssay data set” (2004)
Values joined by “and” are separate entries in the source; they are usually repeats but may differ in a detail not shown here. Equal values may be shown once.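 Compound exposure: 48 hours, 5 concentrations, 96-well plates. Abbreviation: GI50, concentration required for 50% inhibition of growth.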 Active and inactive are the calls of the source. Rule as the data show it: active = GI50 up to about 1.1 µM and inactive = higher.

Columns and labels:
Experiment in all cases: DTP human tumour cell line panel, 48 h
MDA-MB-435 = tested on: MDA-MB-435
Hs-578T = tested on: Hs-578T
EKVX = tested on: EKVX
U-251 = tested on: U-251
LOX IMVI = tested on: LOX IMVI
OVCAR-4 = tested on: OVCAR-4
MDA-N = tested on: MDA-N
HT-29 = tested on: HT-29
HOP-92 = tested on: HOP-92
ACHN = tested on: ACHN
PC-3 = tested on: PC-3
HCT-15 = tested on: HCT-15
HOP-62 = tested on: HOP-62
SNB-75 = tested on: SNB-75
SK-OV-3 = tested on: SK-OV-3
K562 = tested on: K562
OVCAR-3 = tested on: OVCAR-3
NCI-H226 = tested on: NCI-H226
HCC 2998 = tested on: HCC 2998
TK-10 = tested on: TK-10

| Compound | GI50 (MDA-MB-435) | GI50 (Hs-578T) | GI50 (EKVX) | GI50 (U-251) | GI50 (LOX IMVI) | GI50 (OVCAR-4) | GI50 (MDA-N) | GI50 (HT-29) | GI50 (HOP-92) | GI50 (ACHN) | GI50 (PC-3) | GI50 (HCT-15) | GI50 (HOP-62) | GI50 (SNB-75) | GI50 (SK-OV-3) | GI50 (K562) | GI50 (OVCAR-3) | GI50 (NCI-H226) | GI50 (HCC 2998) | GI50 (TK-10) |
| --- | --- | --- | --- | --- | --- | --- | --- | --- | --- | --- | --- | --- | --- | --- | --- | --- | --- | --- | --- | --- |
| CCOC(=O)c1c(-c2ccc(O)c(OC)c2)c(C#N)c(=S)n(C2OC(COC(C)=O)C(OC(C)=O)C(OC(C)=O)C2OC(C)=O)c1-c1ccccc1 (configuration not stated) | 56.2 µM (inactive) and 71 µM (inactive) | > 100 µM (inactive) | 96.8 µM (inactive) and 75.5 µM (inactive) | > 100 µM (inactive) | 35.4 µM (inactive) and 48 µM (inactive) | > 100 µM (inactive) | 61.7 µM (inactive) and 39.4 µM (inactive) | 59.7 µM (inactive) and 32.1 µM (inactive) | 24.9 µM (inactive) | 48.8 µM (inactive) and 61.8 µM (inactive) | 43.8 µM (inactive) and 31.4 µM (inactive) | 98.2 µM | 61.4 µM (inactive) |  |  |  |  |  |  |  |
| Cc1cc(C)c2c(O)c(S(=O)(=O)c3ccc(Cl)cc3)c(=O)oc2c1 | 51.8 µM (inactive) | 39.4 µM (inactive) | 22.7 µM (inactive) | 37.7 µM (inactive) |  | 41.7 µM (inactive) | 79.1 µM (inactive) | 95.3 µM (inactive) | 65.6 µM (inactive) |  | 49 µM (inactive) | 49.7 µM | 61.8 µM (inactive) | 45 µM (inactive) | 70.8 µM (inactive) | 55.6 µM (inactive) | 40 µM (inactive) | 24.3 µM (inactive) |  |  |
| CCN(CC)c1ccc2cc(-c3nnc(-c4ccccc4O)o3)c(=O)oc2c1 | 12.9 µM (inactive) | 20.1 µM (inactive) | 17 µM (inactive) | 7.71 µM (inactive) | 6.73 µM (inactive) | 6.35 µM (inactive) | 12.5 µM (inactive) | 11.7 µM (inactive) |  | 10.2 µM (inactive) | 10.3 µM (inactive) | 5.75 µM | 5.51 µM (inactive) |  | 17.1 µM (inactive) | 5.96 µM (inactive) | 5.97 µM (inactive) |  | 13.6 µM (inactive) |  |
| Cc1ccc(CC(=O)Nc2ccc(NC(=O)CNC(=O)/C=C/c3ccc(-c4ccccc4)cc3)cc2C(=O)c2ccccc2)cc1 | 3.66 µM (inactive) | 4.71 µM (inactive) | 3.47 µM (inactive) | 2.77 µM (inactive) | 3.69 µM (inactive) |  | 4.74 µM (inactive) | 1.58 µM (inactive) | 4.17 µM (inactive) | 4.8 µM (inactive) | 1.98 µM (inactive) | 3.69 µM | 2.55 µM (inactive) |  | 10.7 µM (inactive) | 3.33 µM (inactive) | 4.98 µM (inactive) | 2.79 µM (inactive) | 1.67 µM (inactive) | 2.08 µM (inactive) |
| NC(=S)Nc1nc(=S)[nH]c2[nH]ccc12 | 30.9 µM (inactive) | 23.4 µM (inactive) | 94.2 µM (inactive) | 93.1 µM (inactive) | 27.7 µM (inactive) |  | 98.2 µM (inactive) | 99.5 µM (inactive) | > 100 µM (inactive) | > 100 µM (inactive) | 74.3 µM (inactive) | 41.7 µM | > 100 µM (inactive) | < 0.01 µM (active) | > 100 µM (inactive) | 31 µM (inactive) | 29.7 µM (inactive) | > 100 µM (inactive) |  | 94.8 µM (inactive) |
| CCOC(=O)C(=O)/C(=C/NC(=S)Nc1ccc(Cl)c(Cl)c1)C(=O)OCC | 72.1 µM (inactive) | 44.5 µM (inactive) | 25.6 µM (inactive) | > 100 µM (inactive) | > 100 µM (inactive) | 88.7 µM (inactive) | 61.2 µM (inactive) | 56.9 µM (inactive) | 55.8 µM (inactive) | > 100 µM (inactive) | 47 µM (inactive) | > 100 µM | > 100 µM (inactive) | 31.2 µM (inactive) | > 100 µM (inactive) |  | 72.9 µM (inactive) | 56 µM (inactive) |  | > 100 µM (inactive) |
| CC(=O)NC1C(OCc2ccccc2)OC(CO)C(O)C1OCC(=O)NC(C)C(=O)NC(CCC(=O)NCCCCCC(=O)Nc1ccc2c(c1)CN1C(=O)c3ccccc3C1=N2)C(N)=O (configuration not stated) | > 100 µM (inactive) | > 100 µM (inactive) | > 100 µM (inactive) | 48.3 µM (inactive) | 53.1 µM (inactive) | > 100 µM (inactive) | > 100 µM (inactive) | > 100 µM (inactive) | 25.3 µM (inactive) | 62.8 µM (inactive) | 58.6 µM (inactive) | > 100 µM | 41 µM (inactive) | 49.8 µM (inactive) | > 100 µM (inactive) | 45 µM (inactive) | > 100 µM (inactive) |  | 61.4 µM (inactive) | 30.3 µM (inactive) |
| COC(=O)Nc1nc2cc(NC(=O)c3ccc(I)cc3)ccc2[nH]1 | > 100 µM (inactive) | 84.1 µM (inactive) | > 100 µM (inactive) | > 100 µM (inactive) | > 100 µM (inactive) | > 100 µM (inactive) | > 100 µM (inactive) | > 100 µM (inactive) | > 100 µM (inactive) | > 100 µM (inactive) | > 100 µM (inactive) | > 100 µM | > 100 µM (inactive) | 96.8 µM (inactive) | > 100 µM (inactive) | > 100 µM (inactive) | > 100 µM (inactive) | > 100 µM (inactive) |  | > 100 µM (inactive) |
